Experiment [1] concerns CoK-bearing α-tubulin in HeLa cells. Kind of experiment: Protein labelling on live cells using CoK (α-tubulin), HeLa. The experiment is classed as cell-based. Conditions: CoK-bearing α-tubulin versus wild type. As for the experimental part:
CHO-K1 or HeLa cells were grown in DMEM-low glucose 1 g l^−1 (Gibco) supplemented with 10% FBS (Gibco) in eight-well plate (ibid). At 70∼80% confluency, cells were transfected using 4 μl iN-fect in vitro transfection reagent with 100 ng pCoKRS-tRNA and 900 ng pTub-26TAG or with 900 ng pTubwt. After 6 h of incubation, media was replaced with fresh media (DMEM-low glucose medium with 10% FBS, 1% Pen-Strep, 2 Mm […]) containing 0.25 Mm CoK. After an additional 36 h, media was exchanged with normal growth media without CoK and cells were incubated for 2 h and washed (four times) to remove remaining CoK. Next, growth media containing 1 μM AzG-1 was added to the plates, and cells were incubated for 2 h with four times of washing (30 min each time) using growth media. High-resolution images of live cells were obtained using a Zeiss LSM510 META laser scanning confocal microscope.
Supplementary Figure 21 Fluorescence imaging of α-tubulin in live HeLa.
HeLa cells were co-transfected with plasmids pCoKRS-tRNA and pTub-26TAG or plasmid pTubwt followed by sequential treatment with CoK and AzG-1 as described above. Live cell […]
in HeLa cells. Scale bar, 10 μm.
(1 picture or pasted object on this page, not shown here)

In experiment [2] the test system is CoK-bearing α-tubulin in CHO-K1 cells. Kind of experiment: Protein labelling on live cells using CoK (α-tubulin), CHO-K1. The experiment is classed as cell-based. As to conditions: CoK at position 26 of α-tubulin, 10 μM AzG-1, 2 h, 37 °C. As to the method: (§1) Excited with the results, we further challenged the model and developed another ‘tame' azide-bearing probe, AzG-1, to label molecules in mitochondria and the fancy tubulin protein in living cells (Figs 4a,b). To target mitochondria, U-2 OS cells were pre-treated with TPP-BCN (an analogue of triphenylphosphonium) before labelled with 10 μM AzG-1. For tubulin labelling, a cyclooctyne-containing UAA, N-ɛ-(cyclooct-2-yn-1-yloxy)carbonyl)L-lysine (CoK) was selected for incorporating into tubulin and reacting with AzG-1 via SPAAC.[29] CHO-K1 cells were co-transfected with plasmids pCoKRS-tRNA and pTub-26TAG to incorporate CoK into α-tubulin at position 26. Site-specific incorporation of CoK using an orthogonal tRNA^Pyl/CoKRS pair was confirmed via western blot analysis (Supplementary Figs. 19 and 20). After incorporation of CoK, cells were then labelled with 10 μM AzG-1 at 37 °C. CHO-K1 cells transfected with plasmid pEGFP-Tubwt expressing EGFP-fused wild-type α-tubulin was used as a control. Confocal fluorescence images were then taken AW of unreacted AzG-1.
(§2) Figure 4 Live cell imaging with AzG-1 (a) Chemical structures of azide-bearing probe AzG-1 and its descriptor values. […] (c) Fluorescence imaging of mitochondria in U-2 OS cells labelled with AzG-1. […] (d) Fluorescence imaging of α-tubulin in live CHO-K1 cells. […]

Experiment [3] deals with mitochondria in U-2 OS cells. Kind of experiment: Mitochondria labelling with AzG-1 in cells pre-treated with TPP-BCN. The experiment is classed as cell-based, human. As to conditions: U-2 OS cells pre-treated with TPP-BCN, 10 μM AzG-1, 2 h. As for the experimental part:
as §1, §2

The structures appear in SMILES notation.

Consider `CC1=CC(C)=[N+]2C1=C(CCC(=O)NCCN=[N+]=[N-])c1c(C)cc(C)n1[B-]2(F)F` [AzG-1], for which the “Labelling of α-tubulin” value in experiment [1] and in experiment [2] was “conjugated specifically with CoK-bearing α-tubulin” in each case. Besides, the Labelling of mitochondria entry in experiment [3] is “specifically labelled mitochondria”.

Values taken from PMC4915154, “Development of background-free tame fluorescent probes for intracellular live cell imaging” (Nature Communications, 2016).
